According to US10525055B2, “Opioid receptor antagonist prodrugs” (Nirsum Laboratories, Inc., priority 2017, dated 2020):
One block for each compound: values may come before it.

Tests used:
[1] = Liver S9 fraction stability, human; type: in vitro ADME; conditions: 1.0 mg/ml S9 protein, 2 μM, 37° C.
Protocol: (§1) Liver S9 fraction stability determination of the test compounds in dog, cynomolgus monkey and human is performed using HPLC-MS. Test compound (2 μM, 0.1% DMSO, 1% Methanol final concentration) was assessed for stability in a 50 μl phosphate buffer containing 1.0 mg/ml S9 protein from each of the three species and 5 mM D-saccharic acid-1, 4-lactone. Samples were incubated at 37° C. for 60 minutes and the % compound remaining was assessed.

[2] = Liver S9 fraction stability, dog; type: in vitro ADME; conditions: 1.0 mg/ml S9 protein, 2 μM, 37° C.
Protocol: as §1

[3] = Plasma stability assay, monkey plasma; type: in vitro ADME, cynomolgus monkey; conditions: 37° C., 2 μM; for % remaining at time point in minutes, 15 min: 15 min (as headed); for % remaining at time point in minutes, 120 min: 120 min (as headed); for % remaining at time point in minutes, 480 min: 480 min (as headed); for % remaining at time point in minutes, 1440 min: 1440 min (as headed)
Protocol: (§2) Plasma stability determination of the test compounds in rat, dog, cynomolgus monkey and human plasma is performed using HPLC-MS. For rat, incubations are carried out in 96-well polypropylene plates in 5 aliquots of 70 μL each (one for each time point). […] Five time points are analyzed (0, 15, 120, 480 and 1440 min). […] All incubations are performed in duplicates. The samples are analyzed by HPLC-MS. The percentage of parent compound remaining after incubation in plasma is determined.

[4] = Plasma stability assay, dog plasma; type: in vitro ADME; conditions: 37° C., 2 μM; for % remaining at time point in minutes, 15 min: 15 min (as headed); for % remaining at time point in minutes, 120 min: 120 min (as headed); for % remaining at time point in minutes, 480 min: 480 min (as headed); for % remaining at time point in minutes, 1440 min: 1440 min (as headed)
Protocol: as §2

[5] = Liver S9 fraction stability, monkey; type: in vitro ADME, cynomolgus monkey; conditions: 1.0 mg/ml S9 protein, 2 μM, 37° C.
Protocol: as §1

[6] = Plasma stability assay, human plasma; type: in vitro ADME; conditions: 37° C., 2 μM; for % remaining at time point in minutes, 15 min: 15 min (as headed); for % remaining at time point in minutes, 120 min: 120 min (as headed); for % remaining at time point in minutes, 480 min: 480 min (as headed); for % remaining at time point in minutes, 1440 min: 1440 min (as headed)
Protocol: as §2

[7] = Plasma stability assay, rat plasma; type: in vitro ADME; conditions: 37° C., 10 μM
[8] = Rat pharmacokinetic studies, intramuscular; type: in vivo, male Sprague Dawley Rats; conditions: rat IM, Sesame oil + 1% Benzyl Alcohol
Protocol: The purpose of this study is to determine the pharmacokinetics of test compounds in plasma, following intramuscular administration to male Sprague Dawley Rats (n=3, unless otherwise specified).
The dose formulation of 400 mg base equivalents/ml in sesame oil+1% benzyl alcohol (unless otherwise specified) was administered by intramuscular injection. The dose volume was determined by the animals' body weight determined on the morning of dosing day.
Each collected blood sample was centrifuged for 4 minutes at 4° C. and 10000 rpm for plasma collection. Plasma was collected and transferred into a pre-labeled PP tube in dry ice at each time point and precipitated immediately using ACN at a ratio of 1:4 (plasma:ACN). Centrifuged again (10 minutes, 12000 rpm) and obtain the supernatant.
After terminal collection, all supernatant was stored at approximately −80° C. until bioanalysis.
LC-MS/MS methods for the quantitative determination of test compound in biological matrix were developed. […] The sample analysis was performed concurrently with a set of calibration standards and two sets of QC samples using the LC-MS/MS method.
Plasma concentration versus time data was analyzed by non-compartmental approaches using the Phoenix WinNonlin 6.3 software program. Cmax, Tmax, T1/2, AUC(0-t), AUC(0-inf), MRT(0-t), MRT(0-inf) and graphs of plasma concentration versus time profile were prepared.

[9] = Solubility determination in oil (cottonseed oil, sesame oil); conditions: Sesame oil
Protocol: A known amount of test substance (˜40 mg) was weighed into the vial, 100 μL of oil was added and heated to 60° C. and then system was slurried to reach equilibrium. […] Extra oil was added into the vial once compound precipitated out and then the system was re-equilibrated at 1000 rpm at room temperature (25° C.). Final concentration was determined by HPLC method as described below in Table 6a and 6b.

[10] = Dog pharmacokinetic studies, deep intramuscular; type: in vivo, Beagle dogs; conditions: dog IM, Sesame oil + 1% Benzyl Alcohol
[11] = Polymorph screening of solid state drug substances; conditions: for XRPD results (Dried): stirred 50 °C 72 hours, solids dried; for Visual observation 50° C. / Visual observation RT: target conc. 100 mg/ml
[12] = Physical characterization of solid state drug substance (PLM, XRPD, DSC, TGA); type: physicochemical; conditions: at 120° C., heated from room temperature at 10° C./minute
Protocol: The analysis of the physical characteristics of drug substances that were in a solid state was conducted using polarized light microscopy (PLM), X-ray powder diffractometer (XRPD) assessment, Differential Scanning calorimetry (DSC) and Thermal Gravimetric Analysis (TGA). For PLM, samples were dispersed in immersion oil and were observed using an ocular lens (10×) and objective lens (20×) under crossed polarizers. For XRPD, samples were run on a diffractometer using the following method: Tube—Cu: K-alpha (λ=1.54179 Å); Generator—Voltage 40 kV, Current 40 mA; Scan scope—3 to 40°; sample rotation speed—15 rpm; scanning rate—10 deg/min. For DSC, ˜1 mg of sample was tested using a crimped aluminum pan and covered by a lid with a hole, heated from room temperature to 300° C. at a speed of 10° C./minute. For TGA, 2-5 mg of sample was placed in an open platinum pan and heated from room temperature to 300° C. at a rate of 10° C./minute.

[13] = heating temp. 60 °C, obs. temp. 25 °C

Structure (SMILES): CCCCCCCCCCCC(=O)OCN1C(=O)CCc2ccc(OCCCCN3CCN(c4cccc(Cl)c4Cl)CC3)cc21 [Aripiprazole lauroxil, reference compound]
- Liver S9 Fraction Stability % remaining at 60 minutes, Human [1]: 47.8%
- Liver S9 Fraction Stability % remaining at 60 minutes, Dog [2]: 66.1%
- % remaining at time point in minutes, 0 min [3]: 100%
- % remaining at time point in minutes, 15 min [3]: 95.2%
- % remaining at time point in minutes, 120 min [3]: 94.5%
- % remaining at time point in minutes, 480 min [3]: 75.5%
- % remaining at time point in minutes, 1440 min [3]: 83.2%
- % remaining at time point in minutes, 0 min [4]: 100%
- % remaining at time point in minutes, 15 min [4]: 103%
- % remaining at time point in minutes, 120 min [4]: 81.3%
- % remaining at time point in minutes, 480 min [4]: 78.6%
- % remaining at time point in minutes, 1440 min [4]: 74.3%
- Liver S9 Fraction Stability % remaining at 60 minutes, Monkey [5]: 56.6%
- % remaining at time point in minutes, 0 min [6]: 100%
- % remaining at time point in minutes, 15 min [6]: 99.7%
- % remaining at time point in minutes, 120 min [6]: 80%
- % remaining at time point in minutes, 480 min [6]: 73.2%
- % remaining at time point in minutes, 1440 min [6]: 75.5%
- % remaining at time point in minutes, 0 min [7]: 100%
- % remaining at time point in minutes, 15 min [7]: 84%
- % remaining at time point in minutes, 120 min [7]: 85.5%
- % remaining at time point in minutes, 480 min [7]: 76.4%
- % remaining at time point in minutes, 1440 min [7]: 46%

Structure (SMILES): C=C1CC[C@@]2(O)C3Cc4ccc(OC(=O)CCCCCCC/C=C/CCCCCCCC)c5c4[C@@]2(CCN3CC2CC2)[C@H]1O5 [Compound 15, (4aS,7aS,12bS)-3-(cyclopropylmethyl)-4a-hydroxy-7-methylene-2,3,4,4a,5,6,7,7a-octahydro-1H-4,12-methanobenzofuro[3,2-e]isoquinolin-9-yl (E)-octadec-9-enoate]
- Liver S9 Fraction Stability % remaining at 60 minutes, Human [1]: 59.8%
- Liver S9 Fraction Stability % remaining at 60 minutes, Dog [2]: 80.9%
- AUC0-inf (ng · h/mL) prodrug ([8]; 80 mg/kg): 679 ng·h/mL
- AUC0-inf (ng · h/mL) prodrug ([8]; 123 mg/kg): 2574 ng·h/mL
- AUC0-inf (ng · h/mL) prodrug ([8]; 165 mg/kg): 2789 ng·h/mL
- Half-life t1/2 (hour) prodrug ([8]; 165 mg/kg): 500 h
- % remaining at time point in minutes, 0 min [3]: 100%
- % remaining at time point in minutes, 15 min [3]: 74.5%
- % remaining at time point in minutes, 120 min [3]: 72.7%
- % remaining at time point in minutes, 480 min [3]: 80.6%
- % remaining at time point in minutes, 1440 min [3]: 76.5%
- Approximate Solubility (mg/mL) in Excipient: Sesame oil ([9]; heating temp. 40 °C, obs. temp. 40 °C): <52 mg/mL
- Approximate Solubility (mg/mL) in Excipient: Sesame oil [9, 13]: >396.5 mg/mL
- % remaining at time point in minutes, 0 min [4]: 100%
- % remaining at time point in minutes, 15 min [4]: 82.5%
- % remaining at time point in minutes, 120 min [4]: 80.6%
- % remaining at time point in minutes, 480 min [4]: 90.1%
- % remaining at time point in minutes, 1440 min [4]: 86.1%
- Liver S9 Fraction Stability % remaining at 60 minutes, Monkey [5]: 76.7%
- AUC0-inf (ng · h/mL) prodrug ([10]; 30 mg/kg): 521 ng·h/mL
- Half-life t1/2 (hour) prodrug ([10]; 30 mg/kg): 134 h
- AUC0-inf (ng · h/mL) prodrug ([10]; 48 mg/kg): 1144 ng·h/mL
- Half-life t1/2 (hour) prodrug ([10]; 48 mg/kg): 518 h
- AUC0-inf (ng · h/mL) prodrug ([10]; 96 mg/kg): 1353 ng·h/mL
- Half-life t1/2 (hour) prodrug ([10]; 96 mg/kg): 162 h
- % remaining at time point in minutes, 0 min [6]: 100%
- % remaining at time point in minutes, 15 min [6]: 83.3%
- % remaining at time point in minutes, 120 min [6]: 82.5%
- % remaining at time point in minutes, 480 min [6]: 107.1%
- % remaining at time point in minutes, 1440 min [6]: 109.0%
- % remaining at time point in minutes, 0 min [7]: 100%
- % remaining at time point in minutes, 15 min [7]: 72%
- % remaining at time point in minutes, 120 min [7]: 69.3%
- % remaining at time point in minutes, 480 min [7]: 52%
- % remaining at time point in minutes, 1440 min [7]: 35%

- Liver S9 Fraction Stability % remaining at 60 minutes, Human [1]: 47.8%
- Liver S9 Fraction Stability % remaining at 60 minutes, Dog [2]: 56.4%
- % remaining at time point in minutes, 0 min [3]: 100%
- % remaining at time point in minutes, 15 min [3]: 92%
- % remaining at time point in minutes, 120 min [3]: 89.5%
- % remaining at time point in minutes, 480 min [3]: 98.4%
- % remaining at time point in minutes, 1440 min [3]: 92.5%
- % remaining at time point in minutes, 0 min [4]: 100%
- % remaining at time point in minutes, 15 min [4]: 91.2%
- % remaining at time point in minutes, 120 min [4]: 88.4%
- % remaining at time point in minutes, 480 min [4]: 95.9%
- % remaining at time point in minutes, 1440 min [4]: 93.1%
- Liver S9 Fraction Stability % remaining at 60 minutes, Monkey [5]: 57.4%
- % remaining at time point in minutes, 0 min [6]: 100%
- % remaining at time point in minutes, 15 min [6]: 103.7%
- % remaining at time point in minutes, 120 min [6]: 97.6%
- % remaining at time point in minutes, 480 min [6]: 109.1%
- % remaining at time point in minutes, 1440 min [6]: 104.1%
Structure (SMILES): CCCCCCCCCCCCCCCC(=O)OC1CCCn2c1nc(C)c(CCN1CCC(c3noc4cc(F)ccc34)CC1)c2=O (stereo not drawn) [Paliperidone palmitate, reference compound]

Structure (SMILES): CCCCCCCCCCCCOC(=O)Oc1ccc2c3c1O[C@H]1C(=O)CC[C@@]4(O)C(C2)N(CC2CC2)CC[C@]314 [Compound 11, (4aS,7aR,12bS)-3-(cyclopropylmethyl)-4a-hydroxy-7-oxo-2,3,4,4a,5,6,7,7a-octahydro-1H-4,12-methanobenzofuro[3,2-e]isoquinolin-9-yl dodecyl carbonate]
- XRPD results (Dried) ([11]; Acetone): Pattern A
- Visual observation 50° C. ([11]; Acetone): Clear
- Visual observation RT ([11]; Acetone): Slurry
- XRPD results (Dried) ([11]; EtOAc): Pattern A
- Visual observation 50° C. ([11]; EtOAc): Clear
- Visual observation RT ([11]; EtOAc): Slurry
- XRPD results (Dried) ([11]; Heptane): Pattern B
- Visual observation 50° C. ([11]; Heptane): Clear
- Visual observation RT ([11]; Heptane): Clear
- XRPD results (Dried) ([11]; Isopropanol): Pattern A
- Visual observation 50° C. ([11]; Isopropanol): Clear
- Visual observation RT ([11]; Isopropanol): Slurry
- XRPD results (Dried) ([11]; MTBE): Pattern A
- Visual observation 50° C. ([11]; MTBE): Clear
- Visual observation RT ([11]; MTBE): Clear
- Comment: stability of initial crystal form (pattern A) ([11]; polymorph screen over Heptane, MTBE, Isopropanol, EtOAc, Acetone): to be stable form; Pattern A generated
- Thermal Gravimetric Analysis, weight loss [12]: Weight loss of 0.30% at
- Approximate Solubility (mg/mL) in Excipient: Sesame oil [9, 13]: <50 mg/mL
- % remaining at time point in minutes, 0 min [7]: 100%
- % remaining at time point in minutes, 15 min [7]: 0.7%
- % remaining at time point in minutes, 120 min [7]: 0.3%
- % remaining at time point in minutes, 480 min [7]: 0.2%
- % remaining at time point in minutes, 1440 min [7]: 0%
